From patent US7208494B2, “5HT2c receptor agonists” (Hoffmann-La Roche Inc., priority 2003, dated 2007) come the findings set out here.

One assay addresses T1, human 5-HT2B receptors (Homo sapiens, UniProt P41595).
T1 construct: expressed in transfected cells; host or cells: CHO cell line
The assay can be described thus: Binding to 5-HT2B receptor, [3H]-5-HT, Method (b). Particulars: human 5-HT2B in CHO cell line, read-out: Ki (2B). How it is done: (§1) The binding of compounds of formula (I) to serotonin receptors was determined in vitro by standard methods. The preparations were investigated in accordance with the assays given hereinafter.
Method (b): For the binding to the 5-HT2B receptor the 5-HT2B receptors were radiolabeled with [^3H]-5-HT. The affinity of the compounds for human 5-HT2B receptors in a CHO cell line was determined according to the procedure of K. Schmuck, C. Ullmer, P. Engels and H. Lubbert, FEBS Lett., 1994, 342, 85–90.

Assay [1] addresses T2, 5-HT2C receptor (Homo sapiens, UniProt P28335).
T2 sequence (P28335 33-458): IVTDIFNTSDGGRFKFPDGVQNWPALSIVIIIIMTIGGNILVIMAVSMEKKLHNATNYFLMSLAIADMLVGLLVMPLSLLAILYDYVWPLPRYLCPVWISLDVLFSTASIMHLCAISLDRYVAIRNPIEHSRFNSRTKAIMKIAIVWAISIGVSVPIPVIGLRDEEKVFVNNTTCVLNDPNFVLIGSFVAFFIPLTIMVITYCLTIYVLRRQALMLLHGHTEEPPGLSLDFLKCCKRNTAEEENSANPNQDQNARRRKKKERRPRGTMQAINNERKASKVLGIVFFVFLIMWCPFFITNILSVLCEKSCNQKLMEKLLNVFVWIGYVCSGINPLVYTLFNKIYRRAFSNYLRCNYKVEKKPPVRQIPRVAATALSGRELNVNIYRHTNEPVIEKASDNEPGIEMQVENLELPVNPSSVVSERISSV
The experiment in a line: Functional activity, FLIPR calcium assay, h5-HT2C. Type of assay: cell-based. Further details: expressed in transfected cells; host or cells: CHO cells. The note with it: for EC50: CHO cells expressing human 5-HT2C, FLIPR; for h5-HT2C Rel. Eff.: relative to response of 10 μM 5-HT (defined as 100%). How it is done: (§2) The functional activity of compounds of formula (I) was assayed using a Fluorimetric Imaging Plate reader (FLIPR). CHO cells expressing the human 5-HT2C or human 5-HT2A receptors were counted and plated into standard 96 well microtitre plates on the day before testing to give a confluent monolayer. The cells were then dye loaded with the calcium sensitive dye, Fluo-3-AM. Unincorporated dye was removed using an automated cell washer to leave a total volume of 100 μL/well of assay buffer (Hanks balanced salt solution containing 20 mM Hepes and 2.5 mM probenecid). The drug (dissolved in 50 μL of the assay buffer) was added at a rate of 70 μL/sec to each well of the FLIPR 96 well plate during fluorescence measurements. The measurements were taken at 1 sec intervals and the maximum fluorescent signal was measured (approx 10–15 secs after drug addition) and compared with the response produced by 10 μM 5-HT (defined as 100%) to which it was expressed as a percentage response (relative efficacy). Dose response curves were constructed using Graphpad Prism (Graph Software Inc.).

Assay [2] has as its target T3, 5-HT2A receptor (Homo sapiens, UniProt P28223). The experiment in a line: Functional activity, FLIPR calcium assay, h5-HT2A. Further details: expressed in transfected cells; host or cells: CHO cells. Particulars: for EC50: CHO cells expressing human 5-HT2A, FLIPR; for h5-HT2A Rel. Eff.: relative to response of 10 μM 5-HT (defined as 100%). Type of assay: cell-based. How it is done:
as §2

In assay [3] the target is T2, 5-HT2C receptor. The assay can be described thus: Binding to 5-HT2C receptor, [3H]-5-HT, Method (a). On the set-up: expressed in transfected cells; host or cells: CHO cell line. The note with it: CHO cell line, read-out: Ki (2C). How it is done: as §1
Method (a): For the binding to the 5-HT2C receptor the 5-HT2C receptors were radiolabeled with [^3H]-5-HT. The affinity of the compounds for 5-HT2C receptors in a CHO cell line was determined according to the procedure of D. Hoyer, G. Engel and H. O. Kalkman, European J. Pharmacol., 1985, 118, 13–23.

In assay [4] the target is T3, 5-HT2A receptor. The experiment in a line: Binding to 5-HT2A receptor, [125I]-DOI, Method (c). On the set-up: expressed in transfected cells; host or cells: CHO cell line. Particulars: CHO cell line, read-out: Ki (2A). How it is done: as §1
Method (c): For the binding to the 5-HT2A receptor the 5-HT2A receptors were radiolabeled with [^125I]-DOI. The affinity of the compounds for 5-HT2A receptors in a CHO cell line was determined according to the procedure of D. J. McKenna and S. J. Peroutka, J. Neurosci., 1989, 9, 3482–90.

T3 sequence (P28223 whole entry): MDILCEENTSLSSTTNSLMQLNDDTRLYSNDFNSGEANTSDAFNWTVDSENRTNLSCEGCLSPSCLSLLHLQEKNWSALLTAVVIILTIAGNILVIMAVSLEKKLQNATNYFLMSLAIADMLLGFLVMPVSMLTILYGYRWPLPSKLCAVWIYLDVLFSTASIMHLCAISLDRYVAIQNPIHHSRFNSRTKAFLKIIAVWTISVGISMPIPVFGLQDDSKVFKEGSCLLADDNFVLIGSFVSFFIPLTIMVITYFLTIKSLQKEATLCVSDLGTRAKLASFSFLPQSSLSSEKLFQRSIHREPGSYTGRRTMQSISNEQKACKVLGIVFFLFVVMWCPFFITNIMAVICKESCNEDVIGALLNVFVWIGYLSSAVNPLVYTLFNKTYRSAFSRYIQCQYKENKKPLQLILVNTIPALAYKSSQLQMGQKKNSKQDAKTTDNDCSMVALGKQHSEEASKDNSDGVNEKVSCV
T1 sequence (P41595 whole entry): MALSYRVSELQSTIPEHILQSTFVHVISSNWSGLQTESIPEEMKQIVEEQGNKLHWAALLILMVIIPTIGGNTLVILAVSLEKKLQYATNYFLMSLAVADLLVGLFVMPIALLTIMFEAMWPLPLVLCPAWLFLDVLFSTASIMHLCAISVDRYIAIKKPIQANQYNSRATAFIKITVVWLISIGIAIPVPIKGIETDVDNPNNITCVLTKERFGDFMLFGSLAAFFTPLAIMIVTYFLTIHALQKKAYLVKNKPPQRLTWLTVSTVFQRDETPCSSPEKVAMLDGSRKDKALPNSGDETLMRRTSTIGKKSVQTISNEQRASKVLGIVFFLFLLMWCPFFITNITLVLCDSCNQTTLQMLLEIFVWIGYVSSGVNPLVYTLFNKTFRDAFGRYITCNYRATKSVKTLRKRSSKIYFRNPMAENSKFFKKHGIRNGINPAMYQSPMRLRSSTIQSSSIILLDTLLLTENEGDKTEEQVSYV

`C[C@@H]1CNC[C@H]2Cc3cc(Cl)c(C(F)F)nc3N21` [Example 23, (4R,9aR)-7-Chloro-6-difluoromethyl-4-methyl-1,2,3,4,9,9a-hexahydro-2,4a,5-triaza-fluorene]: the results for the Ki on human 5-HT2B receptors, on 5-HT2C receptor [3] and on 5-HT2A receptor [4] were 12 nM, 8 nM and 25 nM, respectively. The EC50 at 5-HT2C receptor [1] amounted to 14 nM; at 5-HT2A receptor [2], 70 nM. In addition, the “h5-HT2C Rel. Eff.” value at 5-HT2C receptor [1] is listed as 97%. The “h5-HT2A Rel. Eff.” value on 5-HT2A receptor [2] is reported as 56%.
On to `Cc1c(F)cnc2c1C[C@@H]1CNC[C@@H](C)N21` [Example 80, (4R,9aR)-7-Fluoro-4,8-dimethyl-1,2,3,4,9,9a-hexahydro-2,4a,5-triaza-fluorene], for which the Ki on human 5-HT2B receptors was 87 nM; on 5-HT2C receptor [3] it was 6 nM; on 5-HT2A receptor [4] it was 86 nM. Also, the EC50 on 5-HT2C receptor [1] stood at 13 nM; at 5-HT2A receptor [2], 178 nM. The “h5-HT2C Rel. Eff.” value at 5-HT2C receptor [1] is recorded as 98%. Besides, the “h5-HT2A Rel. Eff.” value at 5-HT2A receptor [2] amounted to 56%.
For `CO[C@H](C)c1nc2c(cc1Cl)C[C@@H]1CNC[C@@H](C)N21` [Example 46, (4R,9aR)-7-Chloro-6-(1-(R)-methoxy-ethyl)-4-methyl-1,2,3,4,9,9a-hexahydro-2,4a,5-triaza-fluorene], the Ki on human 5-HT2B receptors stood at 84 nM; on 5-HT2C receptor [3], 9 nM; on 5-HT2A receptor [4] it was 195 nM. Besides, the EC50 on 5-HT2C receptor [1] was 13 nM; at 5-HT2A receptor [2], 273 nM. Besides, at 5-HT2C receptor [1], the “h5-HT2C Rel. Eff.” value is on record as 100%. Moreover, the “h5-HT2A Rel. Eff.” value on 5-HT2A receptor [2] worked out at 50%.

As usually defined, the Ki is the dissociation constant of the complex between target and ligand, obtained from inhibition or displacement. Usually EC50 stands for the concentration at which the effect is half-maximal.
